Test results as given in PMC6384738, “Structure-Function Studies of Polymyxin B Lipononapeptides” (Molecules, 2019).
≈ marks a conversion by molar mass, not a printed value. *1 amine or outer side, *2 acyl side, *3 side chain or, on linkers, in order; H or OH if unused. Where a SMILES comes first, the peptide text is derived from it. Bridges are numbered along the chain shown (N, C = ends). [ ]: non-standard residue; d: D form. The star is where a group is joined. Biphenylcarbonyl(4'-Bu) = CCCCc1ccc(-c2ccc(C(=O)*)cc2)cc1; Isonicotinoyl(2-Ph) = O=C(c1ccnc(-c2ccccc2)c1)*; Butanoyl(4-OPh) = O=C(CCCOc1ccccc1)*; Hexanoyl(6-Ph) = O=C(CCCCCc1ccccc1)*; Cit = NC(=O)NCCC[C@H](N)C(=O)O; X1 = CCCCCC1CCC(C(=O)*)CC1; NH(2-ClPh) = Clc1ccccc1N*; dDab = NCC[C@@H](N)C(=O)O; hSer = N[C@@H](CCO)C(=O)O; Octanoyl = CCCCCCCC(=O)*; Dab = NCC[C@H](N)C(=O)O; Dap = NC[C@H](N)C(=O)O; CO = O=C([*:1])[*:2]

What was measured:
K. pneumoniae ATCC 13833 = test: microbe, parasite or virus in culture
Protocol: (§1) All compounds synthesised in this study were assessed for their minimum inhibitory concentrations (MIC, mg/L) by broth microdilution assay against five antibiotic-sensitive and resistant ATCC reference strains covering the Gram-negative ESKAPE pathogens (Escherichia coli, Klebsiella pneumoniae, A. baumannii, and P. aeruginosa) (Table 1, Table 2 and Table 3). Staphylococcus aureus was also included as a representative Gram-positive bacterial strain. […] Polymyxin B 1, colistin 2, vancomycin and gentamicin were used as positive inhibitor comparator compounds. Compounds were counter-screened against human proximal tubular epithelial cells (HK-2), using LDH release as a general indicator of cellular toxicity.

K. pneumoniae BAA 2146 = test: microbe, parasite or virus in culture
Protocol: as §1

A. baumannii ATCC 19606 = test: microbe, parasite or virus in culture
Protocol: as §1

P. aeruginosa ATTC 27853 = test: microbe, parasite or virus in culture
Protocol: as §1

E. coli ATCC 25922 = test: microbe, parasite or virus in culture
Protocol: as §1

S. aureus ATCC 25923 = test: microbe, parasite or virus in culture
Protocol: as §1

[1] = tested on: K. pneumoniae ATCC 700603; test: microbe, parasite or virus in culture
Protocol: as §1

in vitro = settings: human
Protocol: as §1
Cytotoxicity to human kidney proximal tubular epithelial cell line, HK-2 (ATCC CRL-2190, sourced from ATCC; Manassas, VA, USA) was determined using the LDH assay as previously described. In brief, HK-2 cells were seeded as 2000 cells/well in black-walled clear bottom 384-well tissue culture treated plates (Corning, catalogue No. 3712) in DMEM/F12 medium (Gibco® 10565-042) containing 10% of Fetal Bovine Serum (FBS, Gibco® 10099-141) and incubated for 24 h at 37 °C, 5% CO2. Compounds were then added into each well with a concentration series from 300 µM to 2.3 µM in 2-fold dilutions. Colistin and polymyxin B were used as controls and tested at a final concentration range of 1 mM to 7.8 µM. The cells were incubated with the compounds for 24 h at 37 °C, 5% CO2. After the incubation, 5 µL of culture medium was added to 45 µL of LDH assay buffer (Biovision, K313-500) and incubated for 30 min at room temperature. The absorbance (ABS) was then read at 450 nm using a Polar Star Omega plate reader. The data was analysed by Prism 6 software (GraphPad Software, La Jolla, CA, USA). Results were calculated using the following equation: cytotoxicity %= (ABSsamples − ABSuntreated/ABS1%Triton X-100 − ABSuntreated) × 100.

SMILES	MIC K. pneumoniae ATCC 13833 (K. pneumoniae ATCC 13833; ATCC 13833, 18 h) [µg/mL]	MIC K. pneumoniae BAA 2146 (K. pneumoniae BAA 2146; BAA 2146, 18 h) [µg/mL]	MIC A. baumannii ATCC 19606 (A. baumannii ATCC 19606; ATCC 19606, 18 h) [µg/mL]	MIC P. aeruginosa ATTC 27853 (P. aeruginosa ATTC 27853; ATTC 27853, 18 h) [µg/mL]	MIC E. coli ATCC 25922 (E. coli ATCC 25922; ATCC 25922, 18 h) [µg/mL]	MIC S. aureus ATCC 25923 (S. aureus ATCC 25923; ATCC 25923, 18 h) [µg/mL]	MIC K. pneumoniae ATCC 700603 ([1]; ATCC 700603, 18 h) [µg/mL]	CC50 at 24 h (in vitro) [µM]	MIC K. pneumoniae ATCC 13833 (K. pneumoniae ATCC 13833; broth microdilution, 18 h) [µg/mL]	MIC K. pneumoniae BAA 2146 (K. pneumoniae BAA 2146; NDM-1 positive strain, broth microdilution, 18 h) [µg/mL]	MIC A. baumannii ATCC 19606 (A. baumannii ATCC 19606; broth microdilution, 18 h) [µg/mL]	MIC P. aeruginosa ATTC 27853 (P. aeruginosa ATTC 27853; broth microdilution, 18 h) [µg/mL]	MIC E. coli ATCC 25922 (E. coli ATCC 25922; broth microdilution, 18 h, 37 °C) [µg/mL]	MIC S. aureus ATCC 25923 (S. aureus ATCC 25923; Gram-positive strain, broth microdilution, 18 h) [µg/mL]	MIC K. pneumoniae ATCC 700603 ([1]; ESBL strain, broth microdilution, 18 h) [µg/mL]
CC(C)C[C@@H]1NC(=O)[C@@H](Cc2ccccc2)NC(=O)[C@H](CCN)NC(=O)[C@@H](NC(=O)CNC(=O)[C@@H](NC(=O)CCCOc2ccccc2)[C@@H](C)O)CCNC(=O)[C@H]([C@@H](C)O)NC(=O)[C@H](CCN)NC(=O)[C@H](CCN)NC1=O [Compound 51] ({Butanoyl(4-OPh)}-TG[Dab][Dab][dF]L[Dab][Dab]T; lactam 3-C)	>32	4 (≈ 3.7 µM)	16 (≈ 14.8 µM)	8 (≈ 7.39 µM)	2 (≈ 1.85 µM)	>32	16 (≈ 14.8 µM)	> 300							
CC(C)C[C@@H]1NC(=O)[C@@H](Cc2ccccc2)NC(=O)[C@H](CCN)NC(=O)[C@@H](NC(=O)[C@H](CCN)NC(=O)[C@@H](NC(=O)Nc2ccccc2Cl)[C@@H](C)O)CCNC(=O)[C@H]([C@@H](C)O)NC(=O)[C@H](CCN)NC(=O)[C@H](CCN)NC1=O [Compound 15] ({NH(2-ClPh)-CO}-T[Dab][Dab][Dab][dF]L[Dab][Dab]T; lactam 3-C)								206	>32	32 (≈ 28.7 µM)	>32	1 (≈ 0.895 µM)	32 (≈ 28.7 µM)	>32	32 (≈ 28.7 µM)
CCCCCCCC(=O)N[C@H](C(=O)N[C@@H](CCCNC(N)=O)C(=O)N[C@H]1CCNC(=O)[C@H]([C@@H](C)O)NC(=O)[C@H](CCN)NC(=O)[C@H](CCN)NC(=O)[C@H](CC(C)C)NC(=O)[C@@H](Cc2ccccc2)NC(=O)[C@H](CCN)NC1=O)[C@@H](C)O [Compound 44] (Octanoyl-T[Cit][Dab][Dab][dF]L[Dab][Dab]T; lactam 3-C)	>32	32 (≈ 27.9 µM)	>32	>32	32 (≈ 27.9 µM)	>32	>32	> 300							
CC(C)C[C@@H]1NC(=O)[C@@H](Cc2ccccc2)NC(=O)[C@H](CCN)NC(=O)[C@@H](NC(=O)[C@H](CCN)NC(=O)[C@@H](NC(=O)c2ccnc(-c3ccccc3)c2)[C@@H](C)O)CCNC(=O)[C@H]([C@@H](C)O)NC(=O)[C@H](CCN)NC(=O)[C@H](CCN)NC1=O [Compound 10] ({Isonicotinoyl(2-Ph)}-T[Dab][Dab][Dab][dF]L[Dab][Dab]T; lactam 3-C)	>32	16 (≈ 14 µM)	>32	1 (≈ 0.874 µM)	4 (≈ 3.5 µM)	>32	16 (≈ 14 µM)	> 300							
CCCCCCCC(=O)N[C@H](C(=O)N[C@@H](CN)C(=O)N[C@H]1CCNC(=O)[C@H]([C@@H](C)O)NC(=O)[C@H](CCN)NC(=O)[C@H](CCN)NC(=O)[C@H](CC(C)C)NC(=O)[C@@H](Cc2ccccc2)NC(=O)[C@H](CCN)NC1=O)[C@@H](C)O [Compound 39] (Octanoyl-T[Dap][Dab][Dab][dF]L[Dab][Dab]T; lactam 3-C)	1 (≈ 0.93 µM)	0.5 (≈ 0.465 µM)	1 (≈ 0.93 µM)	1 (≈ 0.93 µM)	1 (≈ 0.93 µM)	>32	1 (≈ 0.93 µM)	290							
CCCCCCCC(=O)N[C@H](C(=O)N[C@@H](CCCCN)C(=O)N[C@H]1CCNC(=O)[C@H]([C@@H](C)O)NC(=O)[C@H](CCN)NC(=O)[C@H](CCN)NC(=O)[C@H](CC(C)C)NC(=O)[C@@H](Cc2ccccc2)NC(=O)[C@H](CCN)NC1=O)[C@@H](C)O [Compound 42] (Octanoyl-TK[Dab][Dab][dF]L[Dab][Dab]T; lactam 3-C)	16 (≈ 14.3 µM)	8 (≈ 7.16 µM)	32 (≈ 28.6 µM)	4 (≈ 3.58 µM)	4 (≈ 3.58 µM)	>32	16 (≈ 14.3 µM)	> 300							
CCCCCC1CCC(C(=O)N[C@H](C(=O)N[C@H](CCN)C(=O)N[C@H]2CCNC(=O)[C@H]([C@@H](C)O)NC(=O)[C@H](CCN)NC(=O)[C@H](CCN)NC(=O)[C@H](CC(C)C)NC(=O)[C@@H](Cc3ccccc3)NC(=O)[C@H](CCN)NC2=O)[C@@H](C)O)CC1 (stereo partly drawn) [Compound 24] (X1-T[dDab][Dab][Dab][dF]L[Dab][Dab]T; lactam 3-C)	>32	4 (≈ 3.5 µM)	32 (≈ 28 µM)	4 (≈ 3.5 µM)	4 (≈ 3.5 µM)		8 (≈ 7 µM)	60							
CCCCCCCC(=O)N[C@@H](CCN)C(=O)N[C@H](C(=O)NCC(=O)N[C@H]1CCNC(=O)[C@H]([C@@H](C)O)NC(=O)[C@H](CCN)NC(=O)[C@H](CCN)NC(=O)[C@H](CC(C)C)NC(=O)[C@@H](Cc2ccccc2)NC(=O)[C@H](CCN)NC1=O)[C@@H](C)O [Compound 50] (Octanoyl-[Dab]TG[Dab][Dab][dF]L[Dab][Dab]T; lactam 4-C)	0.5 (≈ 0.436 µM)					>32		> 300							
CC(C)C[C@@H]1NC(=O)[C@@H](Cc2ccccc2)NC(=O)[C@H](CCN)NC(=O)[C@@H](NC(=O)[C@H](CCN)NC(=O)[C@@H](NC(=O)CCCCCc2ccccc2)[C@@H](C)O)CCNC(=O)[C@H]([C@@H](C)O)NC(=O)[C@H](CCN)NC(=O)[C@H](CCN)NC1=O [Compound 13] ({Hexanoyl(6-Ph)}-T[Dab][Dab][Dab][dF]L[Dab][Dab]T; lactam 3-C)	8 (≈ 7.03 µM)	1 (≈ 0.879 µM)	8 (≈ 7.03 µM)	1 (≈ 0.879 µM)	1 (≈ 0.879 µM)	>32	2 (≈ 1.76 µM)	189							
CCCCCCCC(=O)N[C@H](C(=O)N[C@@H](CCO)C(=O)N[C@H]1CCNC(=O)[C@H]([C@@H](C)O)NC(=O)[C@H](CCN)NC(=O)[C@H](CCN)NC(=O)[C@H](CC(C)C)NC(=O)[C@@H](Cc2ccccc2)NC(=O)[C@H](CCN)NC1=O)[C@@H](C)O [Compound 37] (Octanoyl-T[hSer][Dab][Dab][dF]L[Dab][Dab]T; lactam 3-C)	>32	>32	>32	>32	16 (≈ 14.7 µM)	>32	>32	271							
CCCCCCCC(=O)N[C@@H](CCN)C(=O)N[C@H](C(=O)N[C@H](CO)C(=O)N[C@H]1CCNC(=O)[C@H]([C@@H](C)O)NC(=O)[C@H](CCN)NC(=O)[C@H](CCN)NC(=O)[C@H](CC(C)C)NC(=O)[C@@H](Cc2ccccc2)NC(=O)[C@H](CCN)NC1=O)[C@@H](C)O [Compound 34] (Octanoyl-[Dab]T[dS][Dab][Dab][dF]L[Dab][Dab]T; lactam 4-C)	0.5 (≈ 0.425 µM)	16 (≈ 13.6 µM)				>32	2 (≈ 1.7 µM)	139							
CC(C)C[C@@H]1NC(=O)[C@@H](Cc2ccccc2)NC(=O)[C@H](CCN)NC(=O)[C@@H](NC(=O)[C@H](CCN)NC(=O)[C@@H](NC(=O)[C@H](CCN)NC(=O)Nc2ccccc2Cl)[C@@H](C)O)CCNC(=O)[C@H]([C@@H](C)O)NC(=O)[C@H](CCN)NC(=O)[C@H](CCN)NC1=O [Compound 16] ({NH(2-ClPh)-CO}-[Dab]T[Dab][Dab][Dab][dF]L[Dab][Dab]T; lactam 4-C)								> 300							
CCCCc1ccc(-c2ccc(C(=O)N[C@H](C(=O)N[C@H](CCN)C(=O)N[C@H]3CCNC(=O)[C@H]([C@@H](C)O)NC(=O)[C@H](CCN)NC(=O)[C@H](CCN)NC(=O)[C@H](CC(C)C)NC(=O)[C@@H](Cc4ccccc4)NC(=O)[C@H](CCN)NC3=O)[C@@H](C)O)cc2)cc1 [Compound 23] ({Biphenylcarbonyl(4'-Bu)}-T[dDab][Dab][Dab][dF]L[Dab][Dab]T; lactam 3-C)								29							
